What was measured:
[1] = tested on: AR; assay: Western blot of AR protein levels; assay type: cell-based; conditions: 22Rv1 cells, 250 nM, 72 hours
Procedure: (§1) Total proteins were subjected to 10 or 14% SDS-PAGE, and electrophoretically transferred to nitrocellulose membrane. The membranes were incubated with specific primary antibodies, and subsequently incubated with secondary antibody conjugated with peroxidase (Bio-rad, Hercules, CA). The signal was detected using the chemiluminescent detection system (PIERCE).

[2] = tested on: xenograft samples derived from 22Rv1 cells; assay: Immunohistochemistry of 22Rv1 xenograft samples; assay type: in vivo, mice
Description: Increased nuclear staining of tumor suppressor proteins Rb, p21, p53, APC and SMAD4 were also observed in samples treated with KPT-8602.
A tissue microarray (TMA) was constructed with tumor samples collected from 22Rv1 mouse prostate cancer cell. Paraffin sections of the TMA were processed ans stained with antibodies using a Biogenex 16000 automated stainer. Digital images of the slides were obtained through an Aperio AT Turbo scanner 20×. The following antibodies were used for immunohistochemistry staining: Cleaved Caspase 3 (Cell Singaling Technology, 9661), p21 (Cell Signaling Technology, 2947), APC (Abcam, ab15270), Ki67 (Cell Marque, 275R-18), Rb (Abcam, ab181616, p53 (Santa Cruz, sc-126), and SMAD4 (Santa Cruz, sc-7966).

[3] = tested on: 22Rv1 prostate cancer xenograft; assay: 22Rv1 prostate cancer xenograft model in CB.17 SCID mice; assay type: in vivo; conditions: 15 mg/kg, QDx5/week
Procedure: The effect of KPT-8602 (15 mg/kg, QDx5/week) in a 22Rv1 prostate cancer xenograft model in CB.17 SCID mice was evaluated. Mouse weights and tumor size were monitored three times a week. Each mouse was euthanized at the end of study (Day 35) or when tumor volume reached 1000 mm^3, whichever comes first.

[4] = tested on: Relapsed/Refractory Metastatic Castration Resistant Prostate Cancer (mCRPC); assay: Clinical trial in relapsed/refractory mCRPC, KPT-8602 alone and with abiraterone; assay type: in vivo, human
Procedure: • 1. Histologically confirmed adenocarcinoma of the prostate with archival tumor tissue available for molecular analyses. • 2. Surgically or medically castrated, with testosterone levels of <50 ng/dL (<2.0 nM). • 3. Documented mCRPC progression as assessed by the Investigator with one of the following: • a. Prostate specific antigen (PSA) progression defined by a minimum of 3 rising PSA levels (at approximately Day −30 and approximately Day −45) with an interval of >1 week between each determination. The PSA values at the Screening visit should be >2 μg/L (>2 ng/mL); patients on systemic glucocorticoids for control of symptoms must have documented PSA progression by Prostate Cancer Working Group 3 (PCWG3) while on systemic glucocorticoids prior to commencing C1D1 of treatment. • b. Radiographic progression of soft tissue disease by modified RECIST criteria 1.1 or of bone metastasis with 2 or more documented new bone lesions on a bone scan with or without PSA progression. • 4. Initial response (per modified PCWG3 Guidelines) to second generation anti-hormonal therapy (examples: abiraterone, enzalutamide, TAK 700), but later relapsed. Disease relapse would be defined as progressive disease at the time of entry per inclusion criterion 3. • 5. Zero to 2 previous taxane-based chemotherapy regimens. • 6. At least 2 weeks from completion of any radiotherapy including a single fraction of radiotherapy for the purposes of palliation (confined to one field) is permitted. • 7. Patients should not be transfusion dependent. • 8. Albumin>2.5 g/dL. • 9. Adequate hematopoietic function: ANC≥1000/mm^3, hemoglobin (Hb)≥9.0 g/dL, and platelet count≥100,000/mm^3. • 10. Eastern Cooperative Oncology Group (ECOG) performance status of ≤1. • 11. Life expectancy of ≥4 months. Additional Criteria for Combination Therapy Patients (KPT-8602 and Abiraterone) • 12. Patients currently receiving treatment with abiraterone and appropriate to continue in the opinion of the Investigator (some patients may be progressing). Patients must also have been on and continue on a stable dose of corticosteroids (prednisone or dexamethasone) for 30 days prior to C1D1. B. Patient Characteristics and Demographics
Patients treated with KPT-8602 alone received oral KPT-8602 for 5 days per week (QDx5) at dose levels of 20 and 30 mg. Patients treated with KPT-8602 and abiraterone received oral KPT-8602 for 5 days per week (QDx5) at dose levels of 20 and 30 mg and the dose and schedule of abiraterone and corticosteroids that they were receiving at the time of enrollment. For example, a typical dose of ZYTIGA (abiraterone acetate) is 1000 mg orally once daily with prednisone 5 mg orally twice daily. A full cycle was 28 days long. A representative cycle of KPT-8602 dosing is oral administration 5 out of 7 consecutive days in a week for a 28-day cycle (e.g., Days 1-5, 8-12, 15-19 and 22-26 of each 28-day cycle).
Responses were assessed using RECIST v 1.1 criteria once every 28-day cycle. PR: Partial Response, SD: Stable Disease, PD: Progressive Disease, DCR: Disease Control Rate. 7 Non-evaluable patients: 2AE, 2 patient decision, 2 physician decision, 1 patient non-compliant.
All patients had their disease assessed per modified PCWG3 Guidelines including RECIST v1.1 (see below) by the following tests at pre-determined the time points. • PSA: Disease specific clinical lab assessment • Testosterone: Disease specific clinical lab assessment • Bone scan and CT (or MRI) scan of the abdomen and pelvis (RECIST v.1.1): Patients will receive a bone scan to monitor and assess bone disease progression and CT (or MRI) of the abdomen and pelvis (and chest, if indicated) to monitor and assess soft tissue disease progression per PCWG3 including RECIST v.1.1. […]

[5] = tested on: AR-v7; assay: AR-v7 mRNA expression by real-time RT-qPCR in 22Rv1 cells; assay type: cell-based; conditions: 200 nM, 48 hours, vs control before treatment
Procedure: (§2) Prostate cancer cell line 22Rv1 was treated with KPT-8602 and the effect of the treatment on the expression of AR and AR splice variant AR-v7 was determined. 22Rv1 cells were treated with 200 nM KPT-8602 for 48 hours and the mRNA expression levels of AR and AR-v7 before (control) and after treatment were measured by real-time RT-qPCR using High Capacity cDNA Reverse Transcription Kit and SYBR Green Master Mixture from Applied Biosystems (Waltham, MA).

[6] = tested on: ARv; assay: Western blot of ARv protein levels; assay type: cell-based; conditions: 22Rv1 cells, 250 nM, 72 hours
Procedure: as §1

[7] = tested on: AR; assay: AR mRNA expression by real-time RT-qPCR in 22Rv1 cells; assay type: cell-based; conditions: 200 nM, 48 hours, vs control before treatment
Procedure: as §2

[8] = RECIST v1.1, evaluable patients, KPT-8602 20 and 30 mg QDx5

**Q.** Which “protein levels of AR” value [1] does the source give for NC(=O)/C(=C/n1cnc(-c2cc(C(F)(F)F)cc(C(F)(F)F)c2)n1)c1cncnc1 [KPT-8602] here?
**A.** The value was “significantly decreased”.

**Q.** And the “nuclear staining of tumor suppressor protein APC” value [2]?
**A.** Its value is “Increased”.

**Q.** What about the “nuclear staining of tumor suppressor protein Rb” value [2] of the same compound?
**A.** The value was “Increased”.

**Q.** And the “nuclear staining of tumor suppressor protein SMAD4” value [2]?
**A.** Its value is “Increased”.

**Q.** And the “nuclear staining of tumor suppressor protein p21” value [2]?
**A.** The value was “Increased”.

**Q.** And the “nuclear staining of tumor suppressor protein p53” value [2]?
**A.** The value was “Increased”.

**Q.** And the “apoptotic molecule (Cleaved Caspase 3)” value ([2]; compared to vehicle controls)?
**A.** Its value is “increased”.

**Q.** And the “cell proliferation marker (Ki67)” value ([2]; compared to vehicle controls)?
**A.** Its value is “decreased”.

**Q.** What about the survival [3] of the same compound?
**A.** The survival was “prolongs”.

**Q.** What about the tumor growth [3] of the same compound?
**A.** The tumor growth was “significantly inhibits”.

**Q.** And the “median OS (overall survival)” value ([3]; Kaplan-Meier, end of study Day 35, vehicle 20 days)?
**A.** Its value is “undefined”.

**Q.** And the “% TGI (tumor growth inhibition) on Day 16” value ([3]; compared to vehicle)?
**A.** Its value is 87%.

**Q.** And the “median PFS” value ([4]; Kaplan-Meier analysis, evaluable patients)?
**A.** Its value is 5.9 months.

**Q.** And the “DCR (PR + SD) SD ≥ 8 weeks, % of patients” value [4, 8]?
**A.** The value was 82%.

**Q.** And the “DCR (PR + SD) SD ≥ 8 weeks, number of patients” value [4, 8]?
**A.** Its value is 9.

**Q.** And the “DCR (PR + SD) SD ≥ 16 weeks, % of patients” value [4, 8]?
**A.** Its value is 55%.

**Q.** And the “DCR (PR + SD) SD ≥ 16 weeks, number of patients” value [4, 8]?
**A.** The value was 6.

**Q.** And the “PD (Progressive Disease), % of patients” value [4, 8]?
**A.** Its value is “(18%)”.

**Q.** What about the “PD (Progressive Disease), number of patients” value [4, 8] of the same compound?
**A.** The value was 2.

**Q.** What about the “PR (Partial Response), % of patients” value [4, 8] of the same compound?
**A.** The value was “(9%)”.

**Q.** What about the “PR (Partial Response), number of patients” value [4, 8] of the same compound?
**A.** The value was 1.

**Q.** What about the “Median ToT (Time on Treatment)” value ([4]; evaluable patients, 20 mg KPT-8602) of the same compound?
**A.** The value was 96 days.

**Q.** What about the “Median ToT (Time on Treatment)” value ([4]; evaluable patients, 30 mg KPT-8602) of the same compound?
**A.** Its value is 134 days.

**Q.** What about the “Median ToT (Time on Treatment)” value ([4]; evaluable patients, all doses (20 and 30 mg KPT-8602)) of the same compound?
**A.** Its value is 96 days.

**Q.** And the “mRNA expression of AR-v7” value [5]?
**A.** The value was “significantly inhibited”.

**Q.** What about the “protein levels of ARv” value [6] of the same compound?
**A.** The value was “significantly decreased”.

**Q.** And the “mRNA expression of AR” value [7]?
**A.** Its value is “significantly inhibited”.

Source: patent publication US12318386B2, “Combination of XPO1 inhibitors and second agents for the treatment of prostate cancer” (Karyopharm Therapeutics Inc., priority 2018, dated 2025)
